Reference: patent publication EP1388013B1, “COMPOSITIONS AND METHODS FOR THE USE OF FIBRONECTIN FRAGMENTS IN THE DIAGNOSIS OF CANCER” (THE REGENTS OF THE UNIVERSITY OF MICHIGAN, priority 2001, dated 2002)
“Also recorded” adds a separate entry of the source. Non-standard residues stand in square brackets, D forms with d. Residues, ends and D or L forms follow the SMILES beside them. No end group written: not given here. hCys = N[C@@H](CCS)C(=O)O

Columns and labels:
[1] = system: metastatic DU-145 prostate cancer cells; assay: SU-ECM invasion assay, DU-145 cells; format: cell-based, human; settings: for IC100: Homo sapiens, DU-145, read-out: concentration that completely (fully) inhibits the invasion of metastatic DU145 cells; for concentration that completely inhibits the invasion of metastatic DU145 cells: Example 10; for concentration that completely (fully) inhibits the invasion of metastatic DU145 cells: Example 11, Figure 7, molar basis; for inhibition of serum-induced invasion of DU-145 cells: Figure 4A; for inhibition of PHSRN-induced invasion of DU-145 cells: serum-free medium, 100 ng per ml PHSRN, Figure 4B
Experimental: (§1) Adult Strongylocentrotus purpuratus sea urchins were obtained from Pacific BioMarine, and their embryos were cultured to the early pluteus stage in artificial sea water at 15°C. SU-ECM were prepared from them by treatment with nonionic detergent and sterilized by dilution in the appropriate media.
(§2) […] When appropriate, purified bovine plasma fibronectin (Sigma, St. Louis, Mo), purified 120 kDa chymotryptic fragment (Gibco BRL), PHSRN or PHSCN peptides (synthesized at the Biomedical Research Core Facilities of the University of Michigan), or GRGDSP or GRGESP peptides (Gibco BRL) were added to the resuspended cells prior to placement of the cells on SU-ECM. In each well of a plate used for an invasion assay, SU-ECM were placed in 0.5 ml of the appropriate medium, and 0.5ml of the resuspended cells dropped on their exterior surfaces. Invasion assays were incubated 1 to 16 hours prior to scoring. If some circumstances, invasion assays were fixed in phosphate-buffered saline (PBS) with 2% formaldehyde for 5 minutes at room temperature, then rinsed into PBS.
(§3) Invasion assays were coded and scored blindly by microscopic examination under phase contrast at 200- and 400-fold magnification. Each cell contacting an SU-ECM was scored for its position relative to the exterior or interior surfaces. A cell was judged to have invaded if it was located on an interior surface below the focal plane passing through the upper surface of the SU-ECM, but above the focal plane passing through its lower surface. The minimum viability of the cells in each assay was always ascertained at the time of assay by determining the fraction of spread, adherent cells on the bottom of each well scored.
(§4) An invasion frequency is defined as the fraction of cells in contact with basement membranes which were located in their interiors at the time of assay. Thus, an invasion frequency of 1 denotes invasion by 100% of the cells in contact with basement membranes. Invasion frequencies were determined multiple times for each cell type assayed. For each type of cell assayed the mean and standard deviation of the invasion frequencies were calculated.
(§5) The method of Example 4 is employed, with the addition of varying concentrations of the PHSCN peptide.
(§6) Thus, the procedure in Example 4 provides a method for determining the inhibitory potential of the PHSCN peptide by comparing the number of cell invasions in the presence of the PHSCN peptide, with the number of cell invasions in the absence of the PHSCN peptide.
In this example, in vitro invasion of cancer cells into substrates is inhibited with peptides that have been chemically modified with protecting groups and peptides having protecting groups as well as the modification wherein an L-amino acid has been replaced with the D-isomer. PHSCN peptide, blocked PHSCN peptide, and blocked PHSCN peptide with a D-cysteine instead of the L-isomer, were tested (Figure 4A, 4B).
In this example, in vitro invasion of cancer cells into substrates is inhibited with non-peptide mimetics in comparison with chemically modified peptides (on a molar basis). The peptides of Example 10 (i.e. peptides chemically modified with protecting groups and peptides having protecting groups as well as the modification wherein an L-amino acid has been replaced with the D-isomer) were compared with the non-peptide mimetics DL-N-Acetylhomocysteinethiolactone, Thiobutyrolactone, and Mercaptopropionic acid, in order to investigate the structure activity relationship for invasion inhibition by interaction with the PHSRN-binding pocket of the α5β1 fibronectin receptor (Figure 7)

[2] = system: rat metastatic prostate carcinoma MatLyLu (MLL) cells; assay: SU-ECM invasion assay, MatLyLu cells; format: cell-based; settings: 10% FCS, Figure 5
Experimental: as §1
[…] When appropriate, purified bovine plasma fibronectin (Sigma, St. Louis, Mo), purified 120 kDa chymotryptic fragment (Gibco BRL), PHSRN or PHSCN peptides (synthesized at the Biomedical Research Core Facilities of the University of Michigan), or GRGDSP or GRGESP peptides (Gibco BRL) were added to the resuspended cells prior to placement of the cells on SU-ECM. […]
as §3, with “A cell was judged to have invaded if it was located on an interior surface below the focal plane passing through the upper surface of the SU-ECM, but above the focal plane passing through its lower surface.” left out
An invasion frequency is defined as the fraction of cells in contact with basement membranes which were located in their interiors at the time of assay. […] Invasion frequencies were determined multiple times for each cell type assayed. […]

[3] = system: normal human prostate epithelial cells; assay: SU-ECM invasion assay, normal prostate epithelial cells; format: cell-based; settings: 10% FCS, 100 ng per ml PHSRN, Figure 4B
Experimental: as §1, §2, §3
as §4, with “Thus, an invasion frequency of 1 denotes invasion by 100% of the cells in contact with basement membranes.” left out, “calculated. […]” for “calculated.”

[4] = system: normal human mammary epithelial cells; assay: SU-ECM invasion assay, normal mammary epithelial cells; format: cell-based; settings: 10% FCS, 100 ng per ml PHSRN, Figure 3B
Experimental: as §1, §2, §3
as §4, with “Thus, an invasion frequency of 1 denotes invasion by 100% of the cells in contact with basement membranes.” left out, “calculated. […]” for “calculated.”

[5] = system: metastatic SUM-52 PE breast cancer cells; assay: SU-ECM invasion assay, SUM-52 PE cells; format: cell-based, human; settings: for inhibition of serum-induced invasion of SUM-52 PE cells: medium with 5% serum, Figure 3A; for inhibition of PHSRN-induced invasion of SUM-52 PE cells: serum free media, 100 ng per ml PHSRN, Figure 3B
Experimental: as §1
Cells were harvested by rinsing in Hanks balanced salt solution, followed by brief treatment with 0.25% trypsin, 0.02% EDTA, and pelleting and resuspension in the appropriate medium with or without 5% FCS at a density of about 50,000 cells per ml. When appropriate, purified bovine plasma fibronectin (Sigma, St. Louis, Mo), purified 120 kDa chymotryptic fragment (Gibco BRL), PHSRN or PHSCN peptides (synthesized at the Biomedical Research Core Facilities of the University of Michigan), or GRGDSP or GRGESP peptides (Gibco BRL) were added to the resuspended cells prior to placement of the cells on SU-ECM. In each well of a plate used for an invasion assay, SU-ECM were placed in 0.5 ml of the appropriate medium, and 0.5ml of the resuspended cells dropped on their exterior surfaces. Invasion assays were incubated 1 to 16 hours prior to scoring. If some circumstances, invasion assays were fixed in phosphate-buffered saline (PBS) with 2% formaldehyde for 5 minutes at room temperature, then rinsed into PBS.
as §3, §4, §5, §6

neonatal fibroblasts = assay: SU-ECM invasion assay, neonatal fibroblasts; format: cell-based, human; settings: in the presence (10% FCS) or absence of serum; molar concentration equivalent to plasma fibronectin in serum; Figure 9
Description: In one example cells for the invasion assay are harvested by rinsing in Hanks' balanced salt solution, followed by brief treatment with 0.25% trypsin, 0.02% EDTA, and pelleting and resuspension in the appropriate medium with or without 5% FCS at a density of about 50,000 cells per ml. When appropriate, purified bovine plasma fibronectin (from Sigma, St. Louis, Mo), purified 120 kDa chymotryptic fragment (Gibco BRL) or PHSRN peptides (synthesized at the Biomedical Research Core Facilities of the University of Michigan) are added to the resuspended cells prior to placement of the cells on SU-ECM. In each well of a plate used for an invasion assay, SU-ECM were placed in 0.5 ml of the appropriate medium, and 0.5ml of the resuspended cells dropped on their exterior surfaces. Invasion assays were incubated 1 to 16 hours prior to assay. If some circumstances, invasion assays were fixed in phosphate-buffered saline (PBS) with 2% formaldehyde for 5 minutes at room temperature, then rinsed into PBS.
as §3, with “are” for “were”, “is” for “was”
as §4, with “membranes which are located in” for “membranes which were located in”, “Invasion frequencies are determined multiple” for “Invasion frequencies were determined multiple”
In this example, the invasiveness of neonatal fibroblasts into an SU-ECM invasion substrate is considered. Experiments were performed under serum-free conditions, or in medium with 10% fetal calf serum (FCS). Neither serum-free medium nor medium containing serum supported fibroblast invasion. However, consistent with the induction of metalloproteinase gene transcription by the 120 kDa fragment of plasma fibronectin (pFn) containing the cell-binding domain, the 120 kDa fragment induced fibroblast invasion in the presence or in the absence of serum. […]

[6] = DU145 invasion inhibition, 10% serum

## O=C1CCCS1 [Thiobutyrolactone]
[1]; [6]
  fold less active than N-acetylhomocysteinethiolactone: 50 fold
  fold less active than blocked PHSCN: about 500 fold
  times less active than the unblocked PHSCN peptide: 15 times
[1]
  IC100: 30 µM

## O=C(O)CCS [Mercaptopropionic acid]
[1]; [6]
  times less active in invasion inhibition than thiobutyrolactone: at least 100 times
  times less active than the unblocked PHSCN peptide: ≥ 1500 times
[1]; at any of the concentrations tested, 10% serum
  reduction of DU145 invasion: ≤ 20%

## CC(=O)NC1CCSC1=O (racemic) [DL-N-Acetylhomocysteinethiolactone]
[1]; [6]
  fold less active than blocked PHSCN: about 10 fold
  fold more active than the unblocked PHSCN peptide: about 3 fold
[1]
  IC100: 0.6 µM

## CC(=O)N1CCC[C@H]1C(=O)N[C@@H](Cc1c[nH]cn1)C(=O)N[C@@H](CO)C(=O)N[C@H](CS)C(=O)N[C@@H](CC(N)=O)C(N)=O [Ac-PHS(dC)N-NH2] (Ac-PHS[dC]N-NH2)
[1]; DU145 cells, medium with 10% serum, D-isomer of cysteine substituted
  invasion-inhibitory activity compared with Ac-PHSCN-NH2: further increases the invasion-inhibitory activity; also recorded: further increases very substantially the invasion-inhibitory activity

## Ac-PHSCN-NH2 [Ac-PHSCN-NH2]
[1]; medium with 10% serum
  concentration that completely inhibits the invasion of metastatic DU145 cells: approximately 1.3 ng/ml
  concentration that completely (fully) inhibits the invasion of metastatic DU145 cells: approximately 0.06 µM

## NC(=O)C[C@H](NC(=O)[C@H](CCS)NC(=O)[C@H](CO)NC(=O)[C@H](Cc1c[nH]cn1)NC(=O)[C@@H]1CCCN1)C(=O)O [PHS(hC)N] (H-PHS[hCys]N-OH)
[2]; higher concentrations
  inhibition of serum-induced invasion of MLL cells: completely inhibits invasion
[2]; lower concentrations
  inhibition of serum-induced invasion of MLL cells: substantially inhibits invasion

## PHSCN [PHSCN]
[3]; higher concentrations
  inhibition of PHSRN-induced invasion of normal human prostate epithelial cells: almost complete inhibition
[3]; low concentrations
  inhibition of PHSRN-induced invasion of normal human prostate epithelial cells: substantial inhibitory affect
[4]; higher concentrations
  inhibition of PHSRN-induced invasion of normal human mammary epithelial cells: almost complete inhibition
[4]; low concentrations
  inhibition of PHSRN-induced invasion of normal human mammary epithelial cells: substantial inhibitory affect
[5]; relatively high concentrations
  inhibition of serum-induced invasion of SUM-52 PE cells: complete inhibition
[5]; relatively low concentrations
  inhibition of serum-induced invasion of SUM-52 PE cells: substantial inhibitory affect
[5]; higher concentrations
  inhibition of PHSRN-induced invasion of SUM-52 PE cells: almost complete inhibition
[5]; low concentrations
  inhibition of PHSRN-induced invasion of SUM-52 PE cells: substantial inhibitory affect
[1]; 10% serum, relatively high concentrations
  inhibition of serum-induced invasion of DU-145 cells: complete inhibition
[1]; 10% serum, relatively low concentrations
  inhibition of serum-induced invasion of DU-145 cells: substantial inhibitory affect
[1]; medium with 10% serum
  concentration that completely inhibits the invasion of metastatic DU145 cells: 3 ng/mL
  concentration that completely (fully) inhibits the invasion of metastatic DU145 cells: approximately 2 µM
[1]; higher concentrations
  inhibition of PHSRN-induced invasion of DU-145 cells: almost complete inhibition
[1]; low concentrations
  inhibition of PHSRN-induced invasion of DU-145 cells: substantial inhibitory affect

## N=C(N)NCCC[C@H](NC(=O)CN)C(=O)NCC(=O)N[C@@H](CC(=O)O)C(=O)N[C@@H](CO)C(=O)O [GRGDS, reference compound]
Neonatal fibroblasts
  induction of fibroblast invasion of SU-ECM: no detectable activity
